Measured values reported in ChEMBL document CHEMBL4177636, “Design, synthesis, and biological evaluation of pyrrolobenzodiazepine-containing hypoxia-activated prodrugs” (Bioorg Med Chem Lett, 2017).

Experiments:
[1] = Selectivity index, ratio of prodrug IC50 under normoxic condition to prodrug IC50 under hypoxic condition; format: functional
[2] = Prodrug activation assessed as recombinant human cytochrome P450-reductase-mediated drug metabolism by measuring (S)-7,8-dimethoxy-2-(quinolin-6-yl)-1H-benzo[e]pyrrolo[1,2-a][1,4]diazepin-5(11aH)-one level under normoxic condition after 2 hrs by LC-MS analysis; format: ADME; conditions: recombinant enzyme
[3] = Prodrug activation assessed as recombinant human cytochrome P450-reductase-mediated drug metabolism by measuring (S)-7,8-dimethoxy-2-(quinolin-6-yl)-1H-benzo[e]pyrrolo[1,2-a][1,4]diazepin-5(11aH)-one level under hypoxic condition after 2 hrs by LC-MS analysis; format: ADME; conditions: recombinant enzyme
[4] = system: NCI-H460; assay: Cytotoxicity against human NCI-H460 cells after 24 hrs under hypoxic condition by luminescence-based Cell-Titer Glo assay; format: functional; conditions: NCI-H460, 24 h
[5] = Induction of DNA (unknown origin) alkylation assessed as amount remaining of unalkylated test oligonucleotides after 18 hrs by LC/MS/UV analysis; design: concentration or dose not given beside the values
[6] = system: NCI-H460; assay: Cytotoxicity against human NCI-H460 cells after 24 hrs under normoxic condition by luminescence-based Cell-Titer Glo assay; conditions: NCI-H460, 24 h
[7] = Prodrug activation assessed as recombinant human cytochrome P450-reductase-mediated drug metabolism by measuring (11aS,11a'S)-8,8'-(pentane-1,5-diylbis(oxy))bis(7-methoxy-2-methylene-2,3-dihydro-1H-benzo[e]pyrrolo[1,2-a][1,4]diazepin-5(11aH)-one) level under hypoxic condition after 2 hrs by LC-MS analysis; format: ADME; conditions: recombinant enzyme
[8] = Prodrug activation assessed as recombinant human cytochrome P450-reductase-mediated drug metabolism by measuring (11aS,11a'S)-8,8'-(pentane-1,5-diylbis(oxy))bis(7-methoxy-2-methylene-2,3-dihydro-1H-benzo[e]pyrrolo[1,2-a][1,4]diazepin-5(11aH)-one) level under normoxic condition after 2 hrs by LC-MS analysis; format: ADME; conditions: recombinant enzyme
[9] = Prodrug activation assessed as recombinant human cytochrome P450-reductase-mediated drug metabolism by measuring (S)-7,8-dimethoxy-2-methylene-2,3-dihydro-1H-benzo[e]pyrrolo[1,2-a][1,4]diazepin-5(11aH)-one level under normoxic condition after 2 hrs by LC-MS analysis; format: ADME; conditions: recombinant enzyme
[10] = Prodrug activation assessed as recombinant human cytochrome P450-reductase-mediated drug metabolism by measuring (S)-7,8-dimethoxy-2-methylene-2,3-dihydro-1H-benzo[e]pyrrolo[1,2-a][1,4]diazepin-5(11aH)-one level under hypoxic condition after 2 hrs by LC-MS analysis; format: ADME; conditions: recombinant enzyme

Row | Compound | Ratio IC50 [1] | Drug metabolism [2] [%] | Drug metabolism [3] [%] | IC50 [4] [nM] | Activity [5] [%] | IC50 [6] [nM] | Drug metabolism [7] [%] | Drug metabolism [8] [%] | Drug metabolism [9] [%] | Drug metabolism [10] [%]
1 | COc1cc2c(cc1OC)N(C(=O)OCc1cnc([N+](=O)[O-])n1C)C(O)[C@@H]1CC(c3ccc4ncccc4c3)=CN1C2=O (some centres not stated) | 13.6 | 5 | 92 | 17 | 100 | 232 | – | – | – | –
2 | C=C1C[C@H]2C=Nc3cc(OC)c(OC)cc3C(=O)N2C1 | 2 | – | – | 273 | 84 | 550 | – | – | – | –
3 | C=C1C[C@H]2C=Nc3cc(OCCCCCOc4cc5c(cc4OC)C(=O)N4CC(=C)C[C@H]4C(O)N5C(=O)OCc4cncn4C)c(OC)cc3C(=O)N2C1 (some centres not stated) | – | – | – | – | – | – | 0 | 0 | – | –
4 | Cn1c(COP(=O)(NCCBr)NCCBr)cnc1[N+](=O)[O-] [EVOFOSFAMIDE] | 715 | – | – | 9.3 | – | 6650 | – | – | – | –
5 | C=C1C[C@H]2C=Nc3cc(OCCCCCOc4cc5c(cc4OC)C(=O)N4CC(=C)C[C@H]4C(O)N5C(=O)OCc4cnc([N+](=O)[O-])n4C)c(OC)cc3C(=O)N2C1 (some centres not stated) | 1.3 | – | – | 1.1 | 92 | 1.4 | 0 | 0 | – | –
6 | C=C1C[C@H]2C(O)N(C(=O)OCc3cnc([N+](=O)[O-])n3C)c3cc(OC)c(OC)cc3C(=O)N2C1 (some centres not stated) | 5.6 | – | – | 35000 | 100 | 196000 | – | – | 2 | 100
7 | C=C1C[C@H]2C=Nc3cc(OCCCCCOc4cc5c(cc4OC)C(=O)N4CC(=C)C[C@H]4C=N5)c(OC)cc3C(=O)N2C1 | 1.5 | – | – | 0.062 | 42 | 0.092 | – | – | – | –
8 | COc1cc2c(cc1OC)C(=O)N1C=C(c3ccc4ncccc4c3)C[C@H]1C=N2 | 1.4 | – | – | 0.54 | 78 | 0.77 | – | – | – | –
9 | C=C1C[C@H]2C(O)N(C(=O)OCc3cncn3C)c3cc(OC)c(OC)cc3C(=O)N2C1 (some centres not stated) | – | – | – | – | – | – | – | – | 0 | 0
